Results as given in the NIST ThermoML archive (doi:10.1021/je700700f).

Assays:
[1] = 298.15 K, Liquid; for viscosity: Capillary tube (Ostwald / Ubbelohde) method
[2] = refractive index (Na D-line) (dimensionless); settings: 298.15 K; 101.33 kPa; Liquid; Standard Abbe refractometry
[3] = refractive index (Na D-line) (dimensionless); xn = mol fraction of the nth substance listed; settings: 298.15 K, 101 kPa, Liquid, Standard Abbe refractometry
[4] = xn = mol fraction of the nth substance listed; settings: 298.15 K, 101 kPa, Liquid; for viscosity: Capillary tube (Ostwald / Ubbelohde) method

CC(C)O [propan-2-ol]
[1], 101 kPa
Settings | mass density [kg/m3] | viscosity [mPa·s]
– | 780.7 | 2.082

Settings | refractive index
[2] | 1.375

CCCO [propan-1-ol] + O
Settings | mass density, [4] [kg/m3] | refractive index, [3] | viscosity, [4] [mPa·s]
x1 = 0.0504 | 975.1 | 1.34612 | 1.616
x1 = 0.0993 | 953.3 | 1.35475 | 2.121
x1 = 0.1986 | 914.9 | 1.36491 | 2.599
x1 = 0.2979 | 887.2 | 1.37116 | 2.691
x1 = 0.3949 | 866.9 | 1.37516 | 2.61
x1 = 0.4955 | 850.3 | 1.37805 | 2.494
x1 = 0.5953 | 836.9 | 1.38008 | 2.339
x1 = 0.6995 | 825.6 | 1.38154 | 2.221
x1 = 0.7969 | 816.3 | 1.38239 | 2.124
x1 = 0.8983 | 807.7 | 1.38299 | 2.026
x1 = 0.9518 | 803.5 | 1.38308 | 1.998
x1 = 1 | 799.6 | 1.38309 | 2.017

CCOS(=O)(=O)[O-].CCn1cc[n+](C)c1 [1-ethyl-3-methylimidazolium ethyl sulfate]
[1], 101.33 kPa
Settings | mass density [kg/m3] | viscosity [mPa·s]
– | 1237.63 | 97.58

CC(C)O [propan-2-ol] + O
Settings | mass density, [4] [kg/m3] | refractive index, [3] | viscosity, [4] [mPa·s]
x1 = 0.0491 | 974.6 | 1.3456 | 1.718
x1 = 0.1008 | 953.6 | 1.3557 | 2.495
x1 = 0.2011 | 912.6 | 1.365 | 3.038
x1 = 0.2994 | 881.6 | 1.3697 | 3.087
x1 = 0.3992 | 857.7 | 1.3724 | 2.924
x1 = 0.4981 | 838.8 | 1.374 | 2.693
x1 = 0.5979 | 823.5 | 1.3749 | 2.489
x1 = 0.6987 | 810.6 | 1.3754 | 2.274
x1 = 0.7993 | 799.4 | 1.3756 | 2.153
x1 = 0.8998 | 789.8 | 1.3754 | 2.073
x1 = 0.9495 | 785.4 | 1.3752 | 2.063
x1 = 1 | 780.7 | 1.375 | 2.082

CCCO [propan-1-ol]
[1], 101 kPa
Settings | mass density [kg/m3] | viscosity [mPa·s]
– | 799.6 | 2.017

Settings | refractive index
[2] | 1.38309
